# What was measured:
# [1] = cited from earlier work
# [2] = Maximum solubility of DHEA in lipophilic excipients (12 h stirring with excess active, filtration, HPLC); format: physicochemical; conditions: room temperature
# Procedure: In Table 1 are various examples showing the low solubility of DHEA in a lipophilic phase:
# These maximum solubilities of DHEA were measured after stirring for 12 h with a magnetic stirrer bar, at room temperature, with an excess of active ingredient in the excipient to be analyzed. The suspension is then filtered (1.2 μm) and then the filtrate is assayed by HPLC.
# Above the concentration measured, there is recrystallization of the DHEA at room temperature.
compound,measurement,setting,value
"C[C@]12CC[C@H](O)CC1=CC[C@@H]1[C@@H]2CC[C@]2(C)C(=O)CC[C@@H]12 [DHEA, 3-beta-hydroxyandrosteron-5-en-17-one]",maximum solubility in water,[1],20 µg/mL
same,Solubility (% w/w),[2]; in Caprylic/capric triglycerides,1.77% w/w
same,Solubility (% w/w),[2]; in Cetearyl isononanoate,0.83% w/w
same,Solubility (% w/w),[2]; in Cyclomethicone,0.04% w/w
same,Solubility (% w/w),[2]; in Dimethicone,0.17% w/w
same,Solubility (% w/w),[2]; in Isopropyl palmitate,1.37% w/w
same,Solubility (% w/w),[2]; in Mineral oil,1.00% w/w
same,Solubility (% w/w),[2]; in Octyl palmitate,1.00% w/w
same,Solubility (% w/w),[2]; in Sesame oil,1.40% w/w
same,Solubility (% w/w),[2]; in Squalane,0.10% w/w
